Laboratory results from patent US9540418B2, “Polypeptide specifically binding to rare earth nanoparticles and use thereof” (University of Science and Technology of China, priority 2012, dated 2017).

Tests used:
[1] = Binding ability of FITC-RE-1 to various inorganic nanomaterials (fluorescence spectrophotometer)
Description: 10 μg of FITC-RE-1 polypeptide was incubated with 100 μL of various inorganic nanomaterials (1 mg/mL) at room temperature for 1 hr, and then centrifuged at 12000 rpm for 10 min. The resulting precipitate was washed 3 times. Then, a fluorescence spectrophotometer (RF-5301 PC, Shimadzu, Japan) was used to detect FITC (emission wavelength: 535 nm). The standard curve of fluorescence intensity vs. concentration for FITC-RE-1 was used as control, and thus the binding ability of the various inorganic nanomaterials to FITC-RE-1 polypeptide was determined. […] However, RE-1 hardly bound to non rare-earth materials, such as diamond, TiO2, SiO2, SiO3, and nano-silver (FIG. 4).

[2] = Dissociation of FITC-RE-1 from UCN over time; type: binding; details: after 48 h, 37° C., shaking
Description: (§1) 250 μg FITC-RE-1 was thoroughly mixed with 500 μg UCN. The excess and unbound polypeptides were washed off. Then, the mixture was divided into five aliquots. The aliquots were gently shaked on a shaking table at 37° C. The amount of FITC-RE-1 dissociated in the supernatants was measured by using a fluorescence spectrophotometer at different time points (0 hr, 2 hr, 12 hr, 24 hr, and 48 hr).

[3] = Dissociation of FITC-RE-1 from UCP over time; type: binding; details: after 48 hr, 37° C., shaking
Description: as §1
The process described above was repeated except that 50 μg FITC-RE-1 and 500 μg UCP were used. The amount of FITC-RE-1 dissociated in the supernatants was measured.

HeLa cells [4] = test: Cytotoxicity of UCN or UCP with or without RE-1 (MTT, PI staining); type: cell-based; details: 10-1000 μg/mL, 24 hr, MTT and PI staining
Description: MTT cell vitality assay is performed as follows: The cells to which samples have been added are cultured for 24 hr, and then 0.5 mg/mL MTT solution is added and cultured for 4 hr. The MTT solution in the well is discharged, and then 200 μL DMSO is added, followed by gently shaking the plate on a shaking table for 10 min. Detection is performed using microplate reader (ELX800, purchased from BIO-TEK) at a wavelength of 570 nm.
PI staining assay is performed as follows: The cells to which samples have been added are cultured for 24 hr, and then to the culture Hoechst 33342 (10 mM, purchased from Sigma, USA, Catalog #: B2261) and PI (Propidium Iodide) (10 mM, purchased from Beyotime Biotechnology, Catalog #: ST511) are added for 10 min of staining. Then, the cells are detected and photographed under a fluorescence microscope (Olympus IX71, purchased from Olympus). The number of the cells counted by this assay was 500.
HeLa cells were inoculated into a 96-well cell culturing plate at a density of about 1-2×10^4 cells/well, and cultured overnight for further use. At first, the medium was replaced with fresh DMEM medium, and then 10 μg/mL, 100 μg/mL, 250 μg/mL, 500 μg/mL, or 1000 μg/mL of UCN or UCP coated, with or without RE-1, were added, respectively. After culturing for 24 hr, MTT cell viability assay and PI staining were performed to detect the mortality of the cells.

HeLa cells [5] = test: Adherence of UCN coated with RE-1 or RE-1-RGD to HeLa cells; type: cell-based; details: 37° C., 2 hr, versus uncoated
Description: HeLa cells were cultured on a coverslip (22 mm×22 mm), which was then placed into a 6-well plate with the cells facing upward or downward, and the coverslip was supported by a sterilized glass cube (2 mm×2 mm×2 mm). Then, 4 mL of DMEM medium containing the rare-earth upconversion nanophosphors coated with RE-1 or RE-1-RGD or without any coating was slowly poured into the 6-well plate, such that the cells were fully immersed in the medium, and the coverslip was just located at the middle of the height of the liquid. The cells were placed into a cell incubator at 37° C. for 2 hr, and then washed with PBS 3 times. The UCNs adhered to the surfaces of the cells were observed under a fluorescence microscope (Olympus IX71, Olympus, Japan) equipped with a 980-nm infrared laser (MDL-980 nm 1 W, Changchun New Industries Optoelectronics Tech. Co., Ltd, China).

Question: For “ACTARSPWICG [RE-1, RE-0 with terminal amino acids A and G added]”, which “binding to rare-earth metal oxides and rare-earth upconversion nanophosphors” value ([1]; 10 μg FITC-RE-1, 1 mg/mL material, 1 hr, most strongly Y2O3, CeO2, Yb2O3, Nd2O3, UCN, UCN-S, UCP) is on record?
Answer: Its value is “strongly bound”.

Question: What about the “binding to non rare-earth materials” value ([1]; diamond, TiO2, SiO2, SiO3, nano-silver, 10 μg FITC-RE-1, 1 hr) of the same sequence?
Answer: Its value is “hardly bound”.

Question: What about the “dissociation from UCN” value [2] of the same sequence?
Answer: The value was “less than 0.7%”.

Question: What about the “dissociation from UCP” value [3] of the same sequence?
Answer: Its value is “less than 1.5%”.

Question: And the “effect of coating with RE-1 on cytotoxicity of UCN, UCP” value (HeLa cells [4])?
Answer: The value was “significantly reduced cytotoxicity”.

Question: And the “number of coated upconversion nanophosphors adhered to the surface of the cells” value (HeLa cells [5])?
Answer: The value was “greatly reduced”.
